# Measured values from patent US12138320B2, “Composition and methods for tumor imaging and treatment” (The University of Chicago, priority 2020, dated 2024).
# Columns and labels:
# [1] = tested on: other detected serine hydrolase targets; test: Family-wide gel-based profiling of serine hydrolases in MDA-MB231 and PC3 cells (selectivity); assay type: cell-based, human; details: live cells
# Description: Proteome Preparation: Human PC3 and MDA-MB231 cells were grown in Roswell Park Memorial Institute (RPMI) medium and Dulbecco's Modified Eagle Medium (DMEM), respectively, supplemented with 10% fetal bovine serum (FBS) and 2 mM L-glutamine, and cultured in a humidified 5% CO2 incubator at 37° C. Cells were washed twice with phosphate buffered saline (PBS, pH 7.5), collected by scraping, resuspended in 0.2 ml PBS, sonicated, and fractionated via centrifugation (100,000×g, 45 min) into a pellet (containing membrane proteins) and supernatant (containing soluble proteins). […] Protein concentrations were determined using a Bradford protein assay kit (Bio-Rad, Hercules, California, United States of America)). […]
# Gel-based Activity Profiling: Cell lysates were treated with 1 μM fluorophosphonate-rhodamine (FP-rho) for 30 min at room temperature (50 μL total reaction volume). Reactions were quenched with one volume of standard 4× sodium dodecyl sulfate/polyacrylamide gel electrophoresis (SDS/PAGE) reducing sample buffer, resolved on 10% acrylamide SDS/PAGE gels, and visualized in-gel with a fluorescence scanner sold under the tradename CHEMIDOC™ MP (Bio-Rad, Hercules, California, United States of America). Densitometric quantification of band intensities were used to calculate the percent inhibition via JW199. […]
# [2] = tested on: PC3 prostate cancer xenografts; test: PET/CT imaging and ex vivo biodistribution in mice bearing PC3 xenografts; parameters: species or system mouse; details: ex vivo quantitation, 3 hours after injection, prostate cancer model
# Text: FIGS. 12A-12C: In vivo prostate cancer tumor images with fluorine-18-labeled 2-isopropylphenyl-(4-(2-fluorethoxy)phenethyl)carbamate ([^18F]JW199) tracer. FIG. 12A is a representative whole-body positron emission tomography-computed tomography (PET-CT) image of a PC3 prostate cancer cell tumor-bearing mouse and tumor boundary image in inset. Image is representative of n=4 mice. B. FIG. 12B is a graph showing the ex vivo biodistribution of [^18F]JW199 in mice bearing PC3 xenografts. Quantification of radiotracer signal in the indicated tissues 3 hours after injection of 150 microcurie (μCi) of radiotracer. Data are means percentage injected dose per cubic centimeter (% ID/cc)±standard deviation (SD) (n=4 male mice). FIG. 12C is a graph of the glyceraldehyde-3-phosphate dehydrogenase (GAPDH)-normalized neutral cholesterol ester hydrolase 1 (NCEH1) protein levels in the edge (red) and inside (blue) areas of tumor xenografts, ***p<0.001 as determined by Student's t-test. […]
# In vivo microPET/CT imaging: All imaging was performed by the Integrated Small Animal Imaging Research Resource (iSAIRR) at the University of Chicago (Chicago, Illinois, United States of America) on a β-Cube and X-Cube (Molecubes NV, Ghent, Belgium). […] Respiration rate and body temperature of the animal were constantly monitored during the entire scanning period with the p-Cube and X-Cube onboard monitoring system. […]
smiles,measurement,setting,value
"CC(C)c1ccccc1OC(=O)NCCc1ccc(OCC[18F])cc1 [[^18F]JW199, fluorine-18-labeled 2-isopropylphenyl-(4-(2-fluoroethoxy)phenethyl)carbamate]",selectivity over other detected serine hydrolase targets,[1],"greater than 1,000 fold"
same,total radioactivity in bulk tumor tissue relative to surrounding muscle,[2],higher total radioactivity
